Values after ≈ are worked out from the molar mass of the structure shown. Where two headings read alike, the source gives them in different places.
Assays:
E. coli ATCC 25922 = test: Minimum inhibitory concentration (MIC), E. coli; format: cell-based, Escherichia coli; conditions: Escherichia coli
Method: (§1) Bacterial Strains. The Streptococcus pyogenes strains, Klebsiella pneumoniae, Escherichia coli, Staphylococcus aureus, Enterococcus faecalis used in the antibacterial activity studies ATCC 14289, 49399, 13883, 25922, 13709, 29212, respectively, are obtained from the American Type Culture Collection, Rockville, Md. The strain E. coli imp— is a mutant strain of wild type E. coli with increased outer membrane permeability and was grown in LB broth at 37 °C. S. pyogenes strain is grown in Todd-Hewitt broth. S. aureus is grown in trypticase soy broth, E. faecalis in Todd-Hewitt broth, wild type E. coli and K. pneumoniae, in nutrient broth.
(§2) Determination of Minimum Inhibitory Concentrations (MICs). The assays were carried out in […] volume in duplicate in 96-well clear flat-bottom plates. The bacterial suspension from an overnight culture growth in appropriate medium was added to a solution of test compound in 4% DMSO in water. Final bacterial inoculum was approximately 10^5-10^6 CFU/well. The percent growth of the bacteria in test wells relative to that observed for a well containing no compound was determined by measuring absorbance at 595 nm (A595) after 24 h. […] Both ampicillin and tetracycline is used as antibiotic-positive controls in each screening assay for S. pyogenes, E. coli imp-, E. coli, S. aureus, E. faecalis, K pneumoniae and P. vulgaris. Ciprofloxacin is used as an antibiotic positive control in each screening assay for P. aeruginosa.

S. aureus ATCC 13709 = test: Minimum inhibitory concentration (MIC), S. aureus; format: cell-based, Staphylococcus aureus; conditions: Staphylococcus aureus
Method: as §1, §2

[1] = system: E. coli S30 bacterial extract (protein synthesis); format: biochemical; conditions: versus 12
Method: Coupled Bacterial Transcription/Translation Assay. The DNA template, pBestLuc™ (Promega), is a plasmid containing a reporter gene for firefly luciferase fused to a strong tac promoter and ribosome binding site. Messenger RNA from 1 μg pBestLuc was transcribed and translated in E. coli S30 bacterial extract in the presence or absence of test compound. Compounds were tested in a black 96 well microtiter plate with an assay volume of 35 μL. Each test well contained: 5 μL test compound, 13 μL S30 premix (Promega), 4 μL 10× complete amino acid mix (1 mM each), 5 μL E. coli S30 extract and 8 μL of […] pBestLuc™. The transcription/translation reaction was incubated for 35 minutes at 37° C. followed by detection of functional luciferase with the addition of 30 μL LucLite™ (Packard). Light output was quantitated on a Packard TopCount.

[2] = ATCC25922, 24 h, read-out: MIC (E. coli)
[3] = ATCC13709, 24 h, read-out: MIC (S. aureus)

| Structure (SMILES) | MIC (E. coli ATCC 25922; [2]) | MIC (S. aureus ATCC 13709; [3]) | also measured |
| --- | --- | --- | --- |
| CC(=O)c1ccccc1-c1ccc(C(=O)Nc2cccc(-c3ccc(C(=O)NC(C(=O)N4CCNCC4)c4ccc(OCCCN(C)C)cc4)o3)c2)cc1 (stereo not drawn) | > 100 mM | 6 to 13 mM (≈ 4370 to 9460 µg/mL) | – |
| Cc1ccccc1-c1ccc(C(=O)Nc2cccc(-c3ccc(C(=O)NC(C(=O)N4CCNCC4)c4ccc(OCCCN(C)C)cc4)o3)c2)cc1 (stereo not drawn) [Compound 38] | 3 to 6 mM (≈ 2100 to 4200 µg/mL) | 3 to 6 mM (≈ 2100 to 4200 µg/mL) | – |
| CN(C)CCCOc1ccc(C(NC(=O)c2ccc(-c3cccc(NC(=O)c4ccc5[nH]c(=O)c(=O)[nH]c5c4)c3)o2)C(N)=O)cc1 (stereo not drawn) [Compound 21] | – | – | fold less potent than 12 [1]: ~3 fold |
| CCc1ccccc1-c1ccc(C(=O)Nc2cccc(-c3ccc(C(=O)NC(C(=O)N4CCNCC4)c4ccc(OCCCN(C)C)cc4)o3)c2)cc1 (stereo not drawn) [Compound 41] | 13 to 25 mM (≈ 9280 to 17800 µg/mL) | 3 to 6 mM (≈ 2140 to 4280 µg/mL) | – |
| CC(=O)NCC1CN(c2ccc(N3CCOCC3)c(F)c2)C(=O)O1 (stereo not drawn) | – | – | MIC (E. coli ATCC 25922; ATCC25922, alone (no serum), read-out: MIC (E. coli) alone): 2 to 3 mM (≈ 675 to 1010 µg/mL); MIC (E. coli ATCC 25922; ATCC25922, with serum, read-out: MIC (E. coli) +serum): 3 to 6 mM (≈ 1010 to 2020 µg/mL); MIC (S. aureus ATCC 13709; ATCC13709, alone (no serum), read-out: MIC (S. aureus) alone): 2 mM (≈ 675 µg/mL); MIC (S. aureus ATCC 13709; ATCC13709, with serum, read-out: MIC (S. aureus) +serum): 2 to 3 mM (≈ 675 to 1010 µg/mL) |
| Cc1ccc(F)cc1-c1ccc(C(=O)Nc2cccc(-c3ccc(C(=O)NC(C(=O)N4CCNCC4)c4ccc(OCCCN(C)C)cc4)o3)c2)cc1 (stereo not drawn) [Compound 52] | 13 to 25 mM (≈ 9330 to 17900 µg/mL) | 6 to 13 mM (≈ 4310 to 9330 µg/mL) | – |
| Cc1cccc(-c2ccc(C(=O)Nc3cccc(-c4ccc(C(=O)NC(C(=O)N5CCNCC5)c5ccc(OCCCN(C)C)cc5)o4)c3)cc2)c1 (stereo not drawn) [Compound 39] | 13 to 25 mM (≈ 9100 to 17500 µg/mL) | 13 to 25 mM (≈ 9100 to 17500 µg/mL) | – |
| CN(C)CCCOc1ccc(C(NC(=O)c2ccc(-c3cccc(NC(=O)c4ccc(-c5ccc(C(C)(C)C)cc5)cc4)c3)o2)C(=O)N2CCNCC2)cc1 (stereo not drawn) [Compound 37] | > 100 mM | > 100 mM | – |
| CN(C)CCCCC(NC(=O)c1ccc(-c2cccc(NC(=O)c3ccc(-c4ccccc4)cc3)c2)o1)C(=O)N1CCNCC1 (stereo not drawn) [Compound 68] | 50 to 100 mM (≈ 30400 to 60800 µg/mL) | 25 to 50 mM (≈ 15200 to 30400 µg/mL) | – |
| CN(C)CCCOc1ccc(C(NC(=O)c2ccc(-c3cccc(NC(=O)c4ccc(-c5ccccc5)cc4F)c3)o2)C(=O)N2CCNCC2)cc1 (stereo not drawn) [Compound 59] | 3 to 6 mM (≈ 2110 to 4220 µg/mL) | 6 to 13 mM (≈ 4220 to 9150 µg/mL) | – |
| CCc1ccc(-c2ccc(C(=O)Nc3cccc(-c4ccc(C(=O)NC(C(=O)N5CCNCC5)c5ccc(OCCCN(C)C)cc5)o4)c3)cc2)cc1 (stereo not drawn) [Compound 35] | 50 to 100 mM (≈ 35700 to 71400 µg/mL) | 6 to 13 mM (≈ 4280 to 9280 µg/mL) | – |
| CN(C)CCCOc1ccc(C(NC(=O)c2ccc(-c3cccc(NC(=O)c4ccc(-c5ccccc5F)cc4)c3)o2)C(=O)N2CCNCC2)cc1 (stereo not drawn) [Compound 53] | 13 to 25 mM (≈ 9150 to 17600 µg/mL) | 6 to 13 mM (≈ 4220 to 9150 µg/mL) | – |
| Cc1cccc(C)c1-c1ccc(C(=O)Nc2cccc(-c3ccc(C(=O)NC(C(=O)N4CCNCC4)c4ccc(OCCCN(C)C)cc4)o3)c2)cc1 (stereo not drawn) [Compound 44] | 25 to 50 mM (≈ 17800 to 35700 µg/mL) | 13 to 25 mM (≈ 9280 to 17800 µg/mL) | – |
| CN(C)CCCOc1ccc(C(NC(=O)c2ccc(-c3cccc(NC(=O)c4ccc(-c5ccccc5)cc4)c3)o2)C(=O)N2CCNCC2)cc1 (stereo not drawn) [drawing 88] | – | – | MIC (E. coli ATCC 25922; ATCC25922, read-out: MIC (E. coli) +serum): 50 to 100 mM (≈ 34300 to 68600 µg/mL); MIC (E. coli ATCC 25922; ATCC25922, read-out: MIC (E. coli) alone): 6 to 13 mM (≈ 4110 to 8920 µg/mL); MIC (S. aureus ATCC 13709; ATCC13709, read-out: MIC (S. aureus) +serum, with serum): 50 to 100 mM (≈ 34300 to 68600 µg/mL); MIC (S. aureus ATCC 13709; ATCC13709, read-out: MIC (S. aureus) alone, alone (no serum)): 3 to 6 mM (≈ 2060 to 4110 µg/mL) |
| CN(C)CCCOc1ccc(C(NC(=O)c2ccc(-c3cccc(NC(=O)c4ccc(-c5ccccc5)cc4)c3)o2)C(=O)N2CCN(S(C)(=O)=O)CC2)cc1 (stereo not drawn) [Compound 71] | > 100 mM | > 100 mM | – |
| COC(=O)N1CCN(C(=O)C(NC(=O)c2ccc(-c3cccc(NC(=O)c4ccc(-c5ccccc5)cc4)c3)o2)c2ccc(OCCCN(C)C)cc2)CC1 (stereo not drawn) [Compound 72] | > 100 mM | > 100 mM | – |
| CCCc1ccc(-c2ccc(C(=O)Nc3cccc(-c4ccc(C(=O)NC(C(=O)N5CCNCC5)c5ccc(OCCCN(C)C)cc5)o4)c3)cc2)cc1 (stereo not drawn) [Compound 36] | > 100 mM | 13 to 25 mM (≈ 9460 to 18200 µg/mL) | – |
| CN(C)CCCOc1ccc(C(NC(=O)c2ccc(-c3cccc(NC(=O)c4ccc(-c5c(F)cccc5F)cc4)c3)o2)C(=O)N2CCNCC2)cc1 (stereo not drawn) [Compound 54] | 3 to 6 mM (≈ 2170 to 4330 µg/mL) | 13 to 25 mM (≈ 9380 to 18000 µg/mL) | – |

Reference: patent publication US7432264B2, “Antimicrobial biaryl compounds” (Isis Pharmaceuticals, Inc., priority 2000, dated 2008)
